According to ChEMBL document CHEMBL1124317, “Rationale for the synthesis and preliminary biological evaluation of highly active new antitumor nitrosoureido sugars” (J Med Chem, 1989):

Experiments:
Format in all cases: functional
Mus musculus [1] = assay: Anti tumor activity l when treated to mice with L1210 leukemia with 1.25 mg/kg dose of compound intraperitoneally was expressed as percent of treated to control (T/C %); settings: route intraperitoneal
Mus musculus [2] = assay: Anti tumor activity l when treated to mice with L1210 leukemia with 2.5 mg/kg dose of compound intraperitoneally was expressed as percent of treated to control (T/C %); settings: route intraperitoneal
Mus musculus [3] = assay: Anti tumor activity l when treated to mice with L1210 leukemia with 5 mg/kg dose of compound intraperitoneally was expressed as percent of treated to control (T/C %); settings: route intraperitoneal
Mus musculus [4] = assay: The number of L1210 leukemia mice survived after 30 days with compound in aqueous solution injected by a dose of 5 mg/kg intraperitoneally; 7/10; settings: route intraperitoneal
Mus musculus [5] = assay: The number of L1210 leukemia mice survived after 30 days with compound injected by a dose of 1.25 mg/kg intraperitoneally; 0/8; settings: route intraperitoneal
Mus musculus [6] = assay: The number of L1210 leukemia mice survived after 30 days with compound injected by a dose of 2.5 mg/kg intraperitoneally; 0/8; settings: route intraperitoneal
Mus musculus [7] = assay: The number of L1210 leukemia mice survived after 30 days with compound injected by a dose of 5 mg/kg intraperitoneally; 8/8; settings: route intraperitoneal
Mus musculus [8] = assay: The number of L1210 leukemia mice survived after 60 days with compound in aqueous solution injected by a dose of 10 mg/kg intraperitoneally; 0/10; settings: route intraperitoneal
Mus musculus [9] = assay: Anti tumor activity in olive oil when treated to mice with L1210 leukemia with 10 mg/kg dose of compound intraperitoneally was expressed as percent of treated to control (T/C %); settings: route intraperitoneal
Mus musculus [10] = assay: Anti tumor activity in olive oil when treated to mice with L1210 leukemia with 5 mg/kg dose of compound intraperitoneally was expressed as percent of treated to control (T/C %); settings: route intraperitoneal
Mus musculus [11] = assay: Median survival time of the non surviving mice; treated with 5 mg/kg of compound in olive oil to mice with L1210 leukemia; 23-49
Mus musculus [12] = assay: The number of L1210 leukemia mice survived after 60 days with compound in aqueous solution injected by a dose of 5 mg/kg intraperitoneally; 4/10; settings: route intraperitoneal
Mus musculus [13] = assay: The number of L1210 leukemia mice survived after 60 days with compound injected by a dose of 5 mg/kg intraperitoneally; 4/8; settings: route intraperitoneal
Mus musculus [14] = assay: The number of L1210 leukemia mice survived after 30 days with compound injected by a dose of 0.625 mg/kg intraperitoneally; 0/8; settings: route intraperitoneal
Mus musculus [15] = assay: Anti tumor activity l when treated to mice with L1210 leukemia with 0.625 mg/kg dose of compound intraperitoneally was expressed as percent of treated to control (T/C %); settings: route intraperitoneal
Mus musculus [16] = assay: The number of L1210 leukemia mice survived after 30 days with compound in aqueous solution injected by a dose of 10 mg/kg intraperitoneally; 0/10; settings: route intraperitoneal
Mus musculus [17] = assay: Median survival time of the non surviving mice; treated with 10 mg/kg of compound in olive oil to mice with L1210 leukemia; 15-25
Mus musculus [18] = assay: Median survival time of the non surviving mice; treated with 5 mg/kg of compound to mice with L1210 leukemia; 43-54
Mus musculus [19] = assay: Median survival time of the non surviving mice; treated with 0.625 mg/kg of compound to mice with L1210 leukemia; 10-11
Mus musculus [20] = assay: Median survival time of the non surviving mice; treated with 1.25 mg/kg of compound to mice with L1210 leukemia; 11-15
Mus musculus [21] = assay: Median survival time of the non surviving mice; treated with 2.5 mg/kg of compound to mice with L1210 leukemia; 17-25
[22] = Mortality range of the mice with L1210 leukemia treated with 5 mg/kg of dose intraperitoneally with no of mice survived/no of mice treated; 0/8; settings: route intraperitoneal
[23] = Number of mice died/no of mice treated with 10 mg/kg of compound in aqueous solution intraperitoneally with L1210 leukemia; 1/10; settings: route intraperitoneal
[24] = Mortality range of the mice with L1210 leukemia treated with 1.25 mg/kg of dose intraperitoneally with no of mice survived/no of mice treated; 0/8; settings: route intraperitoneal
Mus musculus [25] = assay: (§1) Mortality range of the mice with L1210 leukemia treated with 2.5 mg/kg of dose intraperitoneally with no of mice survived/no of mice treated; 0/8; settings: route intraperitoneal
[26] = Mortality range of the mice with L1210 leukemia treated with 0.625 mg/kg of dose intra peritoneally with no of mice survived/no of mice treated; 0/8
[27] = Number of mice died/no of mice treated with 5 mg/kg of compound in aqueous solution intraperitoneally with L1210 leukemia; 0/10; settings: route intraperitoneal
Mus musculus [28] = assay: The number of L1210 leukemia mice survived after 30 days with compound in aqueous solution injected by a dose of 5 mg/kg intraperitoneally; 0/10; settings: route intraperitoneal
Mus musculus [29] = assay: The number of L1210 leukemia mice survived after 30 days with compound injected by a dose of 10 mg/kg intraperitoneally; 8/8; settings: route intraperitoneal
Mus musculus [30] = assay: The number of L1210 leukemia mice survived after 30 days with compound injected by a dose of 5 mg/kg intraperitoneally; 0/8; settings: route intraperitoneal
Mus musculus [31] = assay: Median survival time of the non surviving mice; treated with 5 mg/kg of compound in olive oil to mice with L1210 leukemia; 16-19
Mus musculus [32] = assay: The number of L1210 leukemia mice survived after 60 days with compound in aqueous solution injected by a dose of 5 mg/kg intraperitoneally; 0/10; settings: route intraperitoneal
Mus musculus [33] = assay: Median survival time of the non surviving mice; treated with 5 mg/kg of compound to mice with L1210 leukemia; 18-24
Mus musculus [34] = assay: Median survival time of the non surviving mice; treated with 0.625 mg/kg of compound to mice with L1210 leukemia; 9-10
Mus musculus [35] = assay: Median survival time of the non surviving mice; treated with 1.25 mg/kg of compound to mice with L1210 leukemia; 9-11
Mus musculus [36] = assay: Median survival time of the non surviving mice; treated with 2.5 mg/kg of compound to mice with L1210 leukemia; 11-12
[37] = as §1; settings: route intraperitoneal
[38] = Mortality range of the mice with L1210 leukemia treated with 0.625 mg/kg of dose intraperitoneally with no of mice survived/no of mice treated; 0/8; settings: route intraperitoneal
[39] = Mortality range of the mice with L1210 leukemia treated with 10 mg/kg of dose intra peritoneally with no of mice survived/no of mice treated; 0/8
Mus musculus [40] = assay: The number of L1210 Leukemia mice survived after 30 days with compound in olive oil injected by a dose of 20 mg/kg intraperitoneally; 15/15; settings: route intraperitoneal
Mus musculus [41] = assay: The number of B16 melanocarcinoma mice survived after 30 days with compound in olive oil injected by a dose of 20 mg/kg intraperitoneally; 1/20; settings: route intraperitoneal
Mus musculus [42] = assay: Anti tumor activity in olive oil when treated to mice with B16 melanocarcinoma with 20 mg/kg dose of compound intraperitoneally was expressed as percent of treated to control (T/C %); settings: route intraperitoneal
Mus musculus [43] = assay: The number of Lewis lung mice survived after 30 days with compound in olive oil injected by a dose of 20 mg/kg intraperitoneally; 14/20; settings: route intraperitoneal
Mus musculus [44] = assay: The number of Lewis lung mice survived after 60 days with compound in olive oil injected by a dose of 20 mg/kg intraperitoneally; 6/20; settings: route intraperitoneal
Mus musculus [45] = assay: Anti tumor activity in olive oil when treated to mice with Lewis lung with 20 mg/kg dose of compound intraperitoneally was expressed as percent of treated to control (T/C %); settings: route intraperitoneal
Mus musculus [46] = assay: The number of L1210 Leukemia mice survived after 60 days with compound in olive oil injected by a dose of 20 mg/kg intraperitoneally; 15/15; settings: route intraperitoneal
Mus musculus [47] = assay: Median survival time of the non surviving mice; treated with 20 mg/kg of compound in olive oil to mice with B16 Melanocarcinoma; 20-32
Mus musculus [48] = assay: Median survival time of the non surviving mice; treated with 20 mg/kg of compound in olive oil to mice with Lewis lung; 19-46
[49] = Ratio of mice died to that of mice treated with 20 mg/kg of compound in olive oil intraperitoneally with B16 Melanocarcinoma; 0/20; settings: route intraperitoneal
[50] = Ratio of mice died to that of mice treated with 20 mg/kg of compound in olive oil intraperitoneally with L1210 leukemia tumor; 0/15; settings: route intraperitoneal
[51] = Ratio of mice died to that of mice treated with 20 mg/kg of compound in olive oil intraperitoneally with Lewis lung; 0/20; settings: route intraperitoneal
Mus musculus [52] = assay: The number of B16 melanocarcinoma mice survived after 60 days with compound in olive oil injected by a dose of 20 mg/kg intraperitoneally; 0/20; settings: route intraperitoneal

## CO[C@H]1C[C@@H](NC(=O)N(CCCl)N=O)[C@H](O)[C@@H](C)O1
Mus musculus [1]
  T/C: 144%
Mus musculus [2]
  T/C: 244%
Mus musculus [3]
  T/C: 539%
Mus musculus [4]
  Survivals: 7
Mus musculus [5]
  Survivals: 0
Mus musculus [6]
  Survivals: 0
Mus musculus [7]
  Survivals: 8
Mus musculus [8]
  Survivals: 0
Mus musculus [9]
  T/C: 198%
Mus musculus [10]
  T/C: 519%
Mus musculus [11]
  Median survival time: 49
Mus musculus [12]
  Survivals: 4
Mus musculus [13]
  Survivals: 4
Mus musculus [14]
  Survivals: 0
Mus musculus [15]
  T/C: 118%
Mus musculus [16]
  Survivals: 0
Mus musculus [17]
  Median survival time: 18.75
Mus musculus [18]
  Median survival time: 48.5
Mus musculus [19]
  Median survival time: 10.6
Mus musculus [20]
  Median survival time: 12.9
Mus musculus [21]
  Median survival time: 21.9
[22]
  Ratio: 0
[23]
  Ratio: 1
[24]
  Ratio: 0
Mus musculus [25]
  Mortality ratio: 0
[26]
  Ratio: 0
[27]
  Ratio: 0

## O=NN(CCCl)C(=O)NCCCl [CARMUSTINE]
Mus musculus [1]
  T/C: 110%
Mus musculus [2]
  T/C: 128%
Mus musculus [3]
  T/C: 220%
Mus musculus [28]
  Survivals: 0
Mus musculus [5]
  Survivals: 0
Mus musculus [29]
  Survivals: 8
Mus musculus [6]
  Survivals: 0
Mus musculus [30]
  Survivals: 0
Mus musculus [10]
  T/C: 177%
Mus musculus [31]
  Median survival time: 16.75
Mus musculus [32]
  Survivals: 0
Mus musculus [14]
  Survivals: 0
Mus musculus [15]
  T/C: 104%
Mus musculus [33]
  Median survival time: 19.8
Mus musculus [34]
  Median survival time: 9.4
Mus musculus [35]
  Median survival time: 9.9
Mus musculus [36]
  Median survival time: 11.5
[22]
  Ratio: 0
[24]
  Ratio: 0
[37]
  Ratio: 0
[38]
  Ratio: 0
[39]
  Ratio: 0
[27]
  Ratio: 0

## COC1CC(NC(=O)N(CCCl)N=O)C(OC)C(C)O1 (stereo not drawn)
Mus musculus [40]
  Survivals: 15
Mus musculus [41]
  Survivals: 1
Mus musculus [42]
  T/C: 170%
Mus musculus [43]
  Survivals: 14
Mus musculus [44]
  Survivals: 6
Mus musculus [45]
  T/C: 281%
Mus musculus [46]
  Survivals: 15
Mus musculus [47]
  Median survival time: 23.62
Mus musculus [48]
  Median survival time: 35
[49]
  Ratio: 0
[50]
  Ratio: 0
[51]
  Ratio: 0
Mus musculus [52]
  Survivals: 0
